The first test has as its target Neuronal acetylcholine receptor subunit alpha-7 (Homo sapiens, UniProt P36544). Kind of test: Binding affinity to alpha7 nAChR.
Sequence of Neuronal acetylcholine receptor subunit alpha-7 (P36544 whole entry): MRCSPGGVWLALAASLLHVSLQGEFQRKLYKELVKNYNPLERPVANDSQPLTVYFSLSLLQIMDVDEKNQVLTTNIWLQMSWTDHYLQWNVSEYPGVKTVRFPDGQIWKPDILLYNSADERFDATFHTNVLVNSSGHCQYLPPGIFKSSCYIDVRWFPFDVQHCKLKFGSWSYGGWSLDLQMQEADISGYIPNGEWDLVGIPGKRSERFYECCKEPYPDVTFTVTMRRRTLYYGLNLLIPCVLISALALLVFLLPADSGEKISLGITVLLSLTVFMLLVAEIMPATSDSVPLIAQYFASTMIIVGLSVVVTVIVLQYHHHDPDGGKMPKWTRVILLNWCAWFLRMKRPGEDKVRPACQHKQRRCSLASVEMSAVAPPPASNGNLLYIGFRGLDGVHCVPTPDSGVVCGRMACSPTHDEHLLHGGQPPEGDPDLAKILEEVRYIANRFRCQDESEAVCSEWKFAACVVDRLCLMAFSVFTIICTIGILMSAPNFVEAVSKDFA
By Ki is commonly meant a measure of affinity in units of concentration, obtained from inhibition or displacement. Take `CC(COc1ccc(/C=C\c2ccccc2)cc1)[N+](C)(C)C` (centres undefined): the Ki came to 0.057 µM.

The target in the next test is Neuronal acetylcholine receptor subunit beta-2 (Homo sapiens, UniProt P17787). Kind of test: Binding affinity to beta2 nAChR.
Sequence of Neuronal acetylcholine receptor subunit beta-2 (P17787 whole entry): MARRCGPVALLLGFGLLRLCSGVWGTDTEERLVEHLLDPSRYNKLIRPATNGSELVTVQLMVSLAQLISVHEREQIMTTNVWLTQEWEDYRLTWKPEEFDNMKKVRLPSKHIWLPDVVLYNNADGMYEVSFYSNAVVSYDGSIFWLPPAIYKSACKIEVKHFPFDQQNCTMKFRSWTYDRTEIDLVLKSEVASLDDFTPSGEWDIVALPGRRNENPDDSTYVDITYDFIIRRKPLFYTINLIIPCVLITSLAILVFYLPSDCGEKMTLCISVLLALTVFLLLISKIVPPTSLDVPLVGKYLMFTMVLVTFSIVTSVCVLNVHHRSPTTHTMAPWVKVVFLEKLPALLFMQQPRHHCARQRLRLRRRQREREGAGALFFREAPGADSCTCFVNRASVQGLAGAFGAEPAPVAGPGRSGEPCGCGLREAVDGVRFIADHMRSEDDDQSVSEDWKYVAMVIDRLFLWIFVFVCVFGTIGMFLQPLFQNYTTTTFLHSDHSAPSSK
The compound `CC(COc1ccc(/C=C\c2ccccc2)cc1)[N+](C)(C)C` (centres undefined) returned an inhibition constant (Ki) of 39 µM.

For another test, the system named is Mus musculus. As to the kind of experiment: Analgesic activity in mouse assessed as inhibition of acetic acid-induced writhing at 20 umol/kg, sc administered 30 mins before to acetic acid challenge measured after 5 mins for 10 mins relative to control. Format: functional. Set-up: scale not given: the % may be the effect or the level left. On the technique in general: Writhing tests count abdominal constrictions after an irritant is injected.
Turning to `COc1ccc(N2CC[N+]3(CCN(C(=O)c4ccccc4)CC3)CC2)cc1.[Cl-]`, the Activity worked out at 50%. Still for that read-out and setting: the result for `COc1ccc(N2CC[N+]3(CCN(CCc4ccccc4)CC3)CC2)cc1.[Cl-]` reads 27%; that for `COc1ccc(N2CC[N+](C)(C)CC2)cc1.[Cl-]`, 56%; that for `COc1ccc(N2CC[N+](C)(Cc3ccccc3)CC2)cc1.[Cl-]`, 43%. On the same count and under the same terms, the result for `COc1ccc(N2CC[N+]3(CCNCC3)CC2)cc1.[Cl-]` reads 5%; that for `COc1ccc(N2CC[N+]3(CCCCC3)CC2)cc1.[Cl-]`, 26%; that for `COc1ccc(N2CC[N+]3(CCc4ccccc43)CC2)cc1.[Cl-]`, 63%. In the case of `Clc1ccccc1N1CC[N+]2(CCc3ccccc32)CC1.[Cl-]`, the Activity came out at 44%. Still for that read-out and setting: the result for `CS(=O)(=O)[O-].O=[N+]([O-])c1cccc(N2CC[N+]3(CCc4ccccc43)CC2)c1` reads 39%. As to `[Cl-].c1ccc(N2CC[N+]3(CCc4ccccc43)CC2)cc1`, the Activity amounted to 28%. The same measure, in the same setting: the result for `COc1ccc(N2CC[N+]3(CCOCC3)CC2)cc1.[Cl-]` reads 41%. On the same count and under the same terms, the result for `CCCC[N+]1(CCCC)CCN(c2ccc(OC)cc2)CC1.[Cl-]` reads 54%. The same measure, in the same setting: the result for `COc1ccc(N2CC[N+]3(CCN(C)CC3)CC2)cc1.[Cl-]` reads 32%; that for `COc1ccccc1N1CC[N+]2(CCc3ccccc32)CC1.[Cl-]`, 39%; that for `CS(=O)(=O)[O-].O=[N+]([O-])c1ccc(N2CC[N+]3(CCc4ccccc43)CC2)cc1`, 54%. As for `COc1ccc(N2CC[N+]3(CCCC3)CC2)cc1.[Cl-]`, the Activity came out at 41%. The same measure, in the same setting: the result for `COc1ccc(N2CC[N+]3(CCCCCC3)CC2)cc1.[Cl-]` reads 28%. On the same count and under the same terms, the result for `COc1ccc(N2CC[N+]3(CC2)CC(C)OC(C)C3)cc1.[Cl-]` (centres undefined) reads 21%; that for `CC(=O)Nc1cccc(N2CC[N+]3(CCc4ccccc43)CC2)c1.[Cl-]`, 39%; that for `COc1ccc(N2CC[N+]3(CC2)CCN(c2ccc(OC)cc2)CC3)cc1.[Cl-]`, 17%. Consider `COc1cccc(N2CC[N+]3(CCc4ccccc43)CC2)c1.[Cl-]`, for which the Activity was 37%. Turning to `Oc1cccc(N2CC[N+]3(CCc4ccccc43)CC2)c1.[Cl-]`, the Activity worked out at 34%.

(Values after ChEMBL document CHEMBL1667785, “Synthesis and structure-analgesic activity relationships of a novel series of monospirocyclopiperazinium salts (MSPZ)” (Bioorg Med Chem Lett, 2011).)
